Data from patent publication US7604949B2, “Methods and compositions that affect melanogenesis” (New York University, priority 1999, dated 2009).

Key:
melan-p1 cells [1] = experiment: Melanin content of melan-p1 cells with protease inhibitor; type: cell-based, mouse; settings: melan-p1, high concentrations of tyrosine
Method: (§1) (A) Melan-p1 cells incubated in low (0.03 mM) tyrosine and high (0.3 mM) tyrosine (TYR) were treated for 48 hours with increasing concentrations of the protease inhibitor E64 (μM). The tyrosinase activity in the media is expressed as a percentage of total activity in the extract and medium. (B) The concentration of melanin was determined by solubilizing the cell pellet and measuring the absorbance at 470 nm.
(§2) If proteolysis and secretion of tyrosinase were the precipitating factor in the misrouting of tyrosinase, then E64 should increase melanin accumulation in melan-p1 cells. […] A range of E64 concentrations was tested at low (0.03 mM) and high (0.3 mM) tyrosine.

melan-p1 cells [2] = experiment: Secretion of tyrosinase into medium of melan-p1 cells with protease inhibitor; type: cell-based, mouse
Method: as §1
Tyrosinase is a type I membrane protein anchored in the membrane, and it is thus likely that proteolysis, which leads to the clipping of the tail, is required for secretion. The truncated protein would not be detected by αPEP7, which is directed against the tail, although the catalytic domains would remain functional. We, therefore, examined the effects of a series of protease inhibitors on the secretion of tyrosinase by melan-a and melan-p1 cells.
as §2

## CC(C)C[C@H](NC(=O)[C@H]1O[C@@H]1C(=O)O)C(=O)NCCCCN=C(N)N [E64]
melan-p1 cells [1]
  intracellular melanin production: reduced intracellular melanin production
melan-p1 cells [2]; melan-p1, 0.03 mM tyrosine, 12.5 μM E64, 48 hours (untreated 7.1%)
  tyrosinase activity in the media as percentage of total activity in extract and medium: 4.0%
melan-p1 cells [2]; melan-p1, 0.03 mM tyrosine, 25 μM E64, 48 hours (untreated 7.1%)
  tyrosinase activity in the media as percentage of total activity in extract and medium: 3.8%
melan-p1 cells [2]; melan-p1, 0.3 mM tyrosine, E64, 48 hours (untreated 6.5%)
  tyrosinase activity in the media as percentage of total activity in extract and medium: 3.9%
